These are literature values, as cited in US9878049B2, “High drug loading system to co-deliver anticancer drugs and nucleic acids for cancer therapy” (THE UNIVERSITY OF AKRON, priority 2013, dated 2018).

Each structure is given as a SMILES string.

For this data set the following is noted: general statement, no test described.

For `CC[C@@]1(O)C(=O)OCc2c1cc1n(c2=O)Cc2cc3ccccc3nc2-1` [CPT, Camptothecin], the water solubility entry is given as “low water solubility”.
